# Data reported in PubChem BioAssay (NCI).
#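 Exposure lasted 48 hours, with cells grown in 96-well plates and compounds tested at five concentrations. At the GI50, growth is halved. At the TGI there is no net growth.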
# Key:
# Assay in all cases: NCI anticancer screen, dose series, 48 h
# SF-295 CNS = test system: SF-295 CNS
# SF-539 CNS = test system: SF-539 CNS
# NCI-H460 lung = test system: NCI-H460 lung
# OVCAR-5 ovarian = test system: OVCAR-5 ovarian
# HCT-116 colon = test system: HCT-116 colon
# SNB-19 CNS = test system: SNB-19 CNS
# K-562 leukemia = test system: K-562 leukemia
# ACHN renal = test system: ACHN renal
# SNB-75 CNS = test system: SNB-75 CNS
# SW-620 colon = test system: SW-620 colon
# MCF7 breast = test system: MCF7 breast
# 786-0 renal = test system: 786-0 renal
# M14 melanoma = test system: M14 melanoma
# SK-MEL-28 melanoma = test system: SK-MEL-28 melanoma
# DU-145 prostate = test system: DU-145 prostate
# HCT-15 colon = test system: HCT-15 colon
# BT-549 breast = test system: BT-549 breast
# MALME-3M melanoma = test system: MALME-3M melanoma
# NCI-H522 lung = test system: NCI-H522 lung
# COLO 205 colon = test system: COLO 205 colon
# OVCAR-8 ovarian = test system: OVCAR-8 ovarian
# OVCAR-4 ovarian = test system: OVCAR-4 ovarian
# SR leukemia = test system: SR leukemia
# HT29 colon = test system: HT29 colon
# UACC-257 melanoma = test system: UACC-257 melanoma
# NCI-H226 lung = test system: NCI-H226 lung
# NCI/ADR-RES ovarian = test system: NCI/ADR-RES ovarian
# IGROV1 ovarian = test system: IGROV1 ovarian
# SN12C renal = test system: SN12C renal
# MDA-MB-435 = test system: MDA-MB-435
# NCI-H23 lung = test system: NCI-H23 lung
# A549 NSCLC = test system: A549 NSCLC
# TK-10 renal = test system: TK-10 renal
# SK-OV-3 ovarian = test system: SK-OV-3 ovarian
# HOP-92 NSCLC = test system: HOP-92 NSCLC
# U251 CNS = test system: U251 CNS
# UACC-62 melanoma = test system: UACC-62 melanoma
# OVCAR-3 ovarian = test system: OVCAR-3 ovarian
# SK-MEL-2 melanoma = test system: SK-MEL-2 melanoma
# A498 renal = test system: A498 renal
# LOX IMVI melanoma = test system: LOX IMVI melanoma
# CCRF-CEM leukemia = test system: CCRF-CEM leukemia
# T-47D breast = test system: T-47D breast
# SK-MEL-5 melanoma = test system: SK-MEL-5 melanoma
# HS 578T breast = test system: HS 578T breast
# HOP-62 NSCLC = test system: HOP-62 NSCLC
# RPMI-8226 leukemia = test system: RPMI-8226 leukemia
# PC-3 prostate = test system: PC-3 prostate
# HCC-2998 colon = test system: HCC-2998 colon
# MDA-MB-231 breast = test system: MDA-MB-231 breast
# UO-31 renal = test system: UO-31 renal
# MOLT-4 leukemia = test system: MOLT-4 leukemia
# RXF 393 renal = test system: RXF 393 renal
# CAKI-1 renal = test system: CAKI-1 renal
# KM12 colon = test system: KM12 colon
structure (smiles),measurement,setting,value
Cn1c(=O)c(-c2c(Cl)cccc2Cl)cc2cnc(Nc3ccc(I)cc3)nc21,GI50,SF-295 CNS,147 nM
same,TGI,SF-295 CNS,1410 nM
same,GI50,SF-539 CNS,< 14.6 nM
same,TGI,SF-539 CNS,114 nM
same,GI50,NCI-H460 lung,< 10 nM
same,TGI,NCI-H460 lung,10400 nM
same,GI50,OVCAR-5 ovarian,536 nM
same,TGI,OVCAR-5 ovarian,3690 nM
same,TGI,HCT-116 colon,305 nM
same,GI50,SNB-19 CNS,625 nM
same,TGI,SNB-19 CNS,> 100000 nM
same,GI50,K-562 leukemia,< 10 nM
same,TGI,K-562 leukemia,< 10 nM
same,TGI,ACHN renal,712 nM
same,GI50,SNB-75 CNS,17 nM
same,TGI,SNB-75 CNS,155 nM
same,GI50,SW-620 colon,18.8 nM
same,TGI,SW-620 colon,2490 nM
same,GI50,MCF7 breast,212 nM
same,TGI,MCF7 breast,> 100000 nM
same,GI50,786-0 renal,1950 nM
same,TGI,786-0 renal,6220 nM
same,TGI,M14 melanoma,346 nM
same,GI50,SK-MEL-28 melanoma,479 nM
same,TGI,SK-MEL-28 melanoma,> 73600 nM
same,GI50,DU-145 prostate,< 10 nM
same,TGI,DU-145 prostate,139 nM
same,GI50,HCT-15 colon,2870 nM
same,TGI,HCT-15 colon,9420 nM
same,GI50,BT-549 breast,38.9 nM
same,TGI,BT-549 breast,445 nM
same,GI50,MALME-3M melanoma,413 nM
same,TGI,MALME-3M melanoma,3090 nM
same,GI50,NCI-H522 lung,457 nM
same,TGI,NCI-H522 lung,1890 nM
same,GI50,COLO 205 colon,45.8 nM
same,TGI,COLO 205 colon,324 nM
same,GI50,OVCAR-8 ovarian,1520 nM
same,TGI,OVCAR-8 ovarian,> 100000 nM
same,GI50,OVCAR-4 ovarian,213 nM
same,TGI,OVCAR-4 ovarian,7490 nM
same,GI50,SR leukemia,< 10 nM
same,TGI,SR leukemia,< 10 nM
same,GI50,HT29 colon,122 nM
same,TGI,HT29 colon,1560 nM
same,GI50,UACC-257 melanoma,2380 nM
same,TGI,UACC-257 melanoma,> 68800 nM
same,GI50,NCI-H226 lung,182 nM
same,TGI,NCI/ADR-RES ovarian,225 nM
same,GI50,IGROV1 ovarian,506 nM
same,TGI,IGROV1 ovarian,3770 nM
same,GI50,SN12C renal,505 nM
same,TGI,SN12C renal,2370 nM
same,GI50,MDA-MB-435,< 30.4 nM
same,GI50,NCI-H23 lung,65 nM
same,TGI,NCI-H23 lung,469 nM
same,GI50,A549 NSCLC,3720 nM
same,TGI,A549 NSCLC,19400 nM
same,GI50,TK-10 renal,459 nM
same,TGI,TK-10 renal,2120 nM
same,GI50,SK-OV-3 ovarian,73.4 nM
same,GI50,HOP-92 NSCLC,17.9 nM
same,TGI,HOP-92 NSCLC,4940 nM
same,GI50,U251 CNS,305 nM
same,TGI,U251 CNS,13600 nM
same,GI50,UACC-62 melanoma,301 nM
same,TGI,UACC-62 melanoma,1280 nM
same,GI50,OVCAR-3 ovarian,15.8 nM
same,TGI,OVCAR-3 ovarian,64 nM
same,GI50,SK-MEL-2 melanoma,1520 nM
same,TGI,SK-MEL-2 melanoma,> 100000 nM
same,GI50,A498 renal,< 10 nM
same,TGI,A498 renal,< 10 nM
same,GI50,LOX IMVI melanoma,271 nM
same,TGI,LOX IMVI melanoma,1120 nM
same,GI50,CCRF-CEM leukemia,22.4 nM
same,TGI,CCRF-CEM leukemia,> 100000 nM
same,GI50,T-47D breast,229 nM
same,TGI,T-47D breast,> 100000 nM
same,GI50,SK-MEL-5 melanoma,< 10.4 nM
same,TGI,SK-MEL-5 melanoma,157 nM
same,GI50,HS 578T breast,< 10 nM
same,TGI,HS 578T breast,235 nM
same,TGI,HOP-62 NSCLC,668 nM
same,GI50,RPMI-8226 leukemia,< 11.8 nM
same,TGI,RPMI-8226 leukemia,78.5 nM
same,GI50,PC-3 prostate,< 12 nM
same,TGI,PC-3 prostate,> 100000 nM
same,GI50,HCC-2998 colon,< 29.3 nM
same,TGI,HCC-2998 colon,213 nM
same,GI50,MDA-MB-231 breast,259 nM
same,TGI,MDA-MB-231 breast,1290 nM
same,GI50,UO-31 renal,2440 nM
same,TGI,UO-31 renal,8280 nM
same,GI50,MOLT-4 leukemia,17.4 nM
same,TGI,MOLT-4 leukemia,787 nM
same,GI50,RXF 393 renal,2440 nM
same,TGI,RXF 393 renal,15000 nM
same,GI50,CAKI-1 renal,< 24.7 nM
same,GI50,KM12 colon,45.2 nM
same,TGI,KM12 colon,1500 nM
